# Data: patent publication US20250170248A1, “SMARCA DEGRADERS AND USES THEREOF” (Kymera Therapeutics, Inc., priority 2021, published 2025)
# How the values were obtained:
# Assay type in all cases: cell-based
# SMARCA2 [1] = biological target: T1, SMARCA2 (Homo sapiens, UniProt P51531); test: SMARCA2 Western blot degradation in MV4-11 cells; parameters: SMARCA2/SMARCA4 protein degradation selectivity in MV4-11 cells; endogenous in cells; host or cells: MV4-11; details: for SMARCA2 MSD MV411 degradation 24 h: average Dmax % / DC50 / Selectivity in MV411: MV4-11 cells; for SMARCA2 MSD MV411 degradation 24 h: average Dmax % / DC50 / Dmax: 24 h; for DC50: read-out: SMARCA2 MSD MV411 degradation 24 h: Mean external-Abs DC50; for Selectivity in MV411: SMARCA2/4 selectivity; for Dmax: MV4-11, MV4-11 cells, read-out: SMARCA2 MSD MV411 degradation 24 h: average Dmax %
# T1 sequence (P51531 whole entry): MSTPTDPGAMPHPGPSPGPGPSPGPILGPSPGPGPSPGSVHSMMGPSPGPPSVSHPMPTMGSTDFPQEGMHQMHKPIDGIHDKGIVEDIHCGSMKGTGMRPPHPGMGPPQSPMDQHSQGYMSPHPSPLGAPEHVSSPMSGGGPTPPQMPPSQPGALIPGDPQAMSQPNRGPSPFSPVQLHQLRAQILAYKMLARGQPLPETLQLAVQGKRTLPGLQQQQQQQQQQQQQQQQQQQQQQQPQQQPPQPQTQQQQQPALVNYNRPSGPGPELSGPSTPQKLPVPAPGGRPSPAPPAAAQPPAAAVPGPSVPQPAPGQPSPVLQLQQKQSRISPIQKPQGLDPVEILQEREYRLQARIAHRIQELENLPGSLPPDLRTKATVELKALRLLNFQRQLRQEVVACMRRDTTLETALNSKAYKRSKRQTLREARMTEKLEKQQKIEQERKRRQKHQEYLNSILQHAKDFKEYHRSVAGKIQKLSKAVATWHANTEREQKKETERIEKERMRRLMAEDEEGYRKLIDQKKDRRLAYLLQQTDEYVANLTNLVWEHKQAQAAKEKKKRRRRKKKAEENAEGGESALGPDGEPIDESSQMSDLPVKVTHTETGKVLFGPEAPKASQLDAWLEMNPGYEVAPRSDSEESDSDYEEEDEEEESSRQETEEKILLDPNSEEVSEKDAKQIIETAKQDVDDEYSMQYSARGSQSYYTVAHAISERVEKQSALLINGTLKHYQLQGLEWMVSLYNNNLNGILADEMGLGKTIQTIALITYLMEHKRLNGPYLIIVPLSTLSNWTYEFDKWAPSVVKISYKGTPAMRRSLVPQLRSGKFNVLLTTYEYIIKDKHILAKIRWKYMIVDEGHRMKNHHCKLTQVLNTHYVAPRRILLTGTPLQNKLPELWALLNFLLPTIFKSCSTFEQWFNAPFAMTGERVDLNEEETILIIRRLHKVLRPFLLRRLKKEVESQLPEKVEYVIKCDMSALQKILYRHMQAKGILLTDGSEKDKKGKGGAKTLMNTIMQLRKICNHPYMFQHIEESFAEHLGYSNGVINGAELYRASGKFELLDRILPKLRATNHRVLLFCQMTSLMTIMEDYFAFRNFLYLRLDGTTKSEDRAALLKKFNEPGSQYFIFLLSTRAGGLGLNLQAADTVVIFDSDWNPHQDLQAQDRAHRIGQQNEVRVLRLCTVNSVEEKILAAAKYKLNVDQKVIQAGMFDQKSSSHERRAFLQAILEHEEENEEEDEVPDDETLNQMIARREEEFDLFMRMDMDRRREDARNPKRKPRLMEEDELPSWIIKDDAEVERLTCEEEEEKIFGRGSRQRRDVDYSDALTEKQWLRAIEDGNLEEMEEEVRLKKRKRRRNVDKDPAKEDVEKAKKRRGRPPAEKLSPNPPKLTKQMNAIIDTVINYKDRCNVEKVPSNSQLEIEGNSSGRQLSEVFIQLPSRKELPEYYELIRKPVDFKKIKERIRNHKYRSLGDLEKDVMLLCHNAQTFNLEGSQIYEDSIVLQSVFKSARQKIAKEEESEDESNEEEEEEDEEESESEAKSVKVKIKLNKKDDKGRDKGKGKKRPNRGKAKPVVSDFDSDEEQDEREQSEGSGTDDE
# SMARCA2 [2] = biological target: T1, SMARCA2; test: MSD SMARCA2 degradation in A549 cell line; details: for SMARCA2 MSD A549 degradation 24 h: Average Dmax % / DC50: A549 cells; for DC50 / Dmax: 24 h; for DC50: read-out: SMARCA2 MSD A549 degradation 24 h: Average external-Abs DC50; for Dmax: A549, A549 cells
# Method in brief: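 A549 cells treated 24 h with compound, 3-fold series from 1000 nM. Lysates captured on MSD plates and SMARCA2 quantified with anti-SMARCA2 and SULFO-TAG secondary antibodies (electrochemiluminescence). DC50 and Dmax (% degradation at 24 h) reported as letter bins.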
# SMARCA4 = biological target: T2, SMARCA4 (Homo sapiens, UniProt P51532); test: SMARCA4 Western blot degradation in MV4-11 cells; details: for SMARCA4 MSD MV411 degradation 24 h: average Dmax % / DC50: MV4-11 cells; for DC50 / Dmax: 24 h; for DC50: read-out: SMARCA4 MSD MV411 degradation 24 h: Mean external-Abs DC50; for Dmax: MV4-11, MV4-11 cells, read-out: SMARCA4 MSD MV411 degradation 24 h: average Dmax %
# T2 construct: SMARCA2/SMARCA4 protein degradation selectivity in MV4-11 cells; endogenous in cells; host or cells: MV4-11
# T2 sequence (P51532 whole entry): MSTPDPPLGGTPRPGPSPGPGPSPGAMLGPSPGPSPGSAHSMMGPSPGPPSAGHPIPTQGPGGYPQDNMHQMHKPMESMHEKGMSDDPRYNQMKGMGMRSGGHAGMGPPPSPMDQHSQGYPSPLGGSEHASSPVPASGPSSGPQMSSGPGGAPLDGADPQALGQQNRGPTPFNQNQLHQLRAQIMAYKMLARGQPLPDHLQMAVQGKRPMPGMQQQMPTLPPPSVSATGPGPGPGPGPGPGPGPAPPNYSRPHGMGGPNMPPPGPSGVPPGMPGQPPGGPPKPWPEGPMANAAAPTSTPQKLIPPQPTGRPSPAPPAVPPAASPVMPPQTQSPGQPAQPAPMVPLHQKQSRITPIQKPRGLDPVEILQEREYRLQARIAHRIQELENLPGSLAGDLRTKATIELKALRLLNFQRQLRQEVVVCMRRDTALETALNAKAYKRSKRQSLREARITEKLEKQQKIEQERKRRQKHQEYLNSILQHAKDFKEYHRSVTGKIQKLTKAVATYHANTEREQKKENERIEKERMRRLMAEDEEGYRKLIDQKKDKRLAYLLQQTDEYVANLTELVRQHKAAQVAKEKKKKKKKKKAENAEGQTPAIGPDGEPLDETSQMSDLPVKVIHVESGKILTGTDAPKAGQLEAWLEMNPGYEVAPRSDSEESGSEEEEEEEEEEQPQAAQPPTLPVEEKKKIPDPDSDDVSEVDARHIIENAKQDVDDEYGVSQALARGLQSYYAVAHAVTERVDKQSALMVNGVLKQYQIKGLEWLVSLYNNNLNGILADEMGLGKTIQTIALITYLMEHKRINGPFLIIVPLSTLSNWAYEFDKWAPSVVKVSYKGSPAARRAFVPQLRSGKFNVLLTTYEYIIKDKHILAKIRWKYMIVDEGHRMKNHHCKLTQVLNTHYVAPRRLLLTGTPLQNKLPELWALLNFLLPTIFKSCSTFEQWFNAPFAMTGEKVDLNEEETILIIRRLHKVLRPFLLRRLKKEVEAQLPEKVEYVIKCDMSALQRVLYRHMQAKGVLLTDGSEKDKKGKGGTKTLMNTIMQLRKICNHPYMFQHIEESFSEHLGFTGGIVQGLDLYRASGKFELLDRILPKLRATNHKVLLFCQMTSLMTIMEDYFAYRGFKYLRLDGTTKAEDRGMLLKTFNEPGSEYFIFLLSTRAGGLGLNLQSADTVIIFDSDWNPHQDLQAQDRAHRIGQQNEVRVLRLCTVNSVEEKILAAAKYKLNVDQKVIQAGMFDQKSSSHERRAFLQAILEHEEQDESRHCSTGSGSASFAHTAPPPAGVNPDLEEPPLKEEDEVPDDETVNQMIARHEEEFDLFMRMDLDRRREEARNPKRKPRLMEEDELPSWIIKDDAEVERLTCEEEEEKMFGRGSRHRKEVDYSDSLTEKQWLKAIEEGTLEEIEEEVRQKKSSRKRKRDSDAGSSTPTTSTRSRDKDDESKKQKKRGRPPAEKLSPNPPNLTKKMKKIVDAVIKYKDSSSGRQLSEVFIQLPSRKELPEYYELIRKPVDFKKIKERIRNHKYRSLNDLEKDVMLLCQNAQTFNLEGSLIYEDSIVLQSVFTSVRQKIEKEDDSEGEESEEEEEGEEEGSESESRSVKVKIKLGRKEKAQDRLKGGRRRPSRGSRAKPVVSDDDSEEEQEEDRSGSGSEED
# Method in brief: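 MV4-11 cells (4×10^6/well) treated with compound for 24 h, lysed in RIPA with protease/phosphatase inhibitors, and SMARCA2, SMARCA4 and beta-actin detected by Western blot with LI-COR readout. Values reported as letter-coded DC50, 24 h Dmax % and SMARCA2/4 selectivity fold.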
SMARCA2 MSD MV411 degradation 24 h: average Dmax % (SMARCA2 [1]),DC50 (SMARCA2 [1]) [nM],Selectivity in MV411 (SMARCA2 [1]),SMARCA2 MSD A549 degradation 24 h: Average Dmax % (SMARCA2 [2]),DC50 (SMARCA2 [2]) [nM],SMARCA4 MSD MV411 degradation 24 h: average Dmax % (SMARCA4),DC50 (SMARCA4) [nM],Dmax (SMARCA2 [1]) [%],Dmax (SMARCA2 [2]) [%],Dmax (SMARCA4) [%],SMILES
A (A (>90% degradation)),1 to 10,D (D (<10 fold)),A (A (>90% degradation)),10 to 50,A (A (>90% degradation)),10 to 100,,,,"C#Cc1ccc(CNC(=O)[C@@H]2C[C@@H](O)CN2C(=O)[C@@H](NC(=O)[C@H]2CCC3(CC2)C[C@H](N2CCC(c4cnc(N5CCN6c7cc(-c8ccccc8O)nnc7NC[C@H]6C5)nc4)CC2)C3)C(C)(C)C)c(OCCCOC)c1 (single isomer, unassigned) [I-149]"
,< 1,C (C (10-100 fold)),,< 10,,1 to 10,> 90,> 90,> 90,Cc1ncsc1-c1ccc(CNC(=O)[C@@H]2C[C@@H](O)CN2C(=O)[C@@H](OC(=O)N2CC3(CC(N4CCN(c5cnc(N6CCN7c8cc(-c9ccccc9O)nnc8NC[C@H]7C6)nc5)CC4)C3)C2)C(C)(C)C)cc1 [I-96]
,1 to 10,C (C (10-100 fold)),,50 to 100,,> 100,70 to 90,> 90,50 to 70,"C#Cc1ccc(CNC(=O)[C@@H]2C[C@@H](O)CN2C(=O)[C@@H](NC(=O)[C@H]2CCC3(CC2)C[C@H](N2CCC(N4CC5(CC(N6CCN7c8cc(-c9ccccc9O)nnc8NC[C@H]7C6)C5)C4)CC2)C3)C(C)(C)C)cc1 (single isomer, unassigned) [I-223]"
,10 to 100,C (C (10-100 fold)),,> 100,,> 100,70 to 90,> 90,70 to 90,C#Cc1ccc(CNC(=O)[C@@H]2C[C@@H](O)CN2C(=O)[C@@H](NC(=O)N2CC3(CC(N4CCC([C@H]5CC[C@@H](N6CCc7[nH]c8nnc(-c9ccccc9O)cc8c7[C@H]6C)CC5)CC4)C3)C2)C(C)(C)C)cc1 [I-185]
,> 100,C (C (10-100 fold)),,> 100,,> 100,< 50,< 50,< 50,C#Cc1ccc(CNC(=O)[C@@H]2C[C@@H](O)CN2C(=O)[C@@H](N(CCOC)C(=O)N2CC3(CC(N4CCC(c5cnc(N6CCc7[nH]c8nnc(-c9ccccc9O)cc8c7[C@H]6C)nc5)CC4)C3)C2)C(C)(C)C)cc1 [I-140]
,< 1,C (C (10-100 fold)),A (A (>90% degradation)),< 10,,10 to 100,> 90,,70 to 90,"C#Cc1ccc(CNC(=O)[C@@H]2C[C@@H](O)CN2C(=O)[C@@H](NC(=O)[C@H]2CCC3(CC2)C[C@H](N2CCC(c4cnc(N5CCN6c7cc(-c8ccccc8O)nnc7NC[C@H]6C5)nc4)CC2)C3)C(C)(C)C)c(OC)c1 (single isomer, unassigned) [I-100]"
,> 100,C (C (10-100 fold)),,> 100,,> 100,< 50,< 50,< 50,C#Cc1ccc(CNC(=O)[C@@H]2C[C@@H](O)CN2C(=O)[C@@H](N(CCN(C)C)C(=O)N2CC3(CC(N4CCC(c5cnc(N6CCc7[nH]c8nnc(-c9ccccc9O)cc8c7[C@H]6C)nc5)CC4)C3)C2)C(C)(C)C)cc1 [I-141]
,1 to 10,A (A (>500 fold)),,10 to 50,,> 100,70 to 90,> 90,< 50,C#Cc1ccc([C@H](C)NC(=O)[C@@H]2C[C@@H](O)CN2C(=O)[C@@H](NC(=O)N2CC3(CC(N4CCC(c5cnc(N6CCc7[nH]c8nnc(-c9ccccc9O)cc8c7[C@H]6CO)nc5)CC4)C3)C2)C(C)(C)C)cc1 [I-321]
,1 to 10,D (D (<10 fold)),,> 100,,1 to 10,> 90,> 90,> 90,"Cc1ncsc1-c1ccc(CNC(=O)[C@@H]2C[C@@H](O)CN2C(=O)[C@@H](NC(=O)C2(F)CC2)C(C)(C)C)c(O[C@H]2CC[C@H](N3CCC(N4CCC(c5cnc(N6CCc7[nH]c8nnc(-c9ccccc9O)cc8c7[C@@H]6C)nc5)CC4)CC3)CC2)c1 (single isomer, unassigned) [I-47]"
,10 to 100,B (B (>100-500 fold)),,50 to 100,,> 100,70 to 90,> 90,50 to 70,"Cc1ncsc1-c1ccc(CNC(=O)[C@@H]2C[C@@H](O)CN2C(=O)[C@@H](NC(=O)C2(F)CC2)C(C)(C)C)c(O[C@H]2CC[C@@H](N3CCC(c4cnc(N5CCc6[nH]c7nnc(-c8ccccc8O)cc7c6[C@H]5C)nc4)CC3)CC2)c1 (single isomer, unassigned) [I-31]"
D (D (<50% degradation)),> 100,C (C (10-100 fold)),D (D (<50% degradation)),> 100,D (D (<50% degradation)),> 100,,,,"Cc1cc(Cl)ccc1C#CCNC(=O)[C@@H]1C[C@@H](O)CN1C(=O)[C@@H](NC(=O)[C@H]1CCC2(CC1)C[C@H](N1CCC(c3cnc(N4CCN5c6cc(-c7ccccc7O)nnc6NC[C@H]5C4)nc3)CC1)C2)C(C)(C)C (single isomer, unassigned) [I-126]"
,10 to 100,C (C (10-100 fold)),,> 100,,> 100,70 to 90,70 to 90,< 50,"C#Cc1ccc(CNC(=O)[C@@H]2C[C@@H](O)CN2C(=O)[C@@H](NC(=O)C2CCC3(CC2)CC(N2CCC(N4CCC[C@H](C(=O)N5CCN6c7cc(-c8ccccc8O)nnc7NC[C@H]6C5)C4)CC2)C3)C(C)(C)C)cc1 (single isomer, unassigned) [I-90]"
,1 to 10,C (C (10-100 fold)),,< 10,,10 to 100,> 90,> 90,70 to 90,"C#Cc1ccc(CNC(=O)[C@@H]2C[C@@H](O)CN2C(=O)[C@@H](NC(=O)N2CC3(CC(N4CCC(c5cnc(N6CCc7[nH]c8nnc(-c9ccccc9O)cc8c7[C@H]6C)nc5)CC4)C3)C2)C(C)(C)C)cc1 (single isomer, unassigned) [I-73]"
B (B (>70-90% degradation)),10 to 100,C (C (10-100 fold)),A (A (>90% degradation)),> 100,C (C (50-70% degradation)),> 100,,,,"Cc1ncsc1-c1ccc(CNC(=O)[C@@H]2C[C@@H](O)CN2C(=O)[C@@H](NC(=O)[C@H]2CCC3(CC2)C[C@H](N2CCC4(CC2)CN(C(=O)N2CCN5c6cc(-c7ccccc7O)nnc6NC[C@H]5C2)CCO4)C3)C(C)(C)C)cc1 (single isomer, unassigned) [I-93]"
,10 to 100,B (B (>100-500 fold)),,> 100,,> 100,70 to 90,> 90,< 50,C#Cc1ccc(CNC(=O)[C@@H]2C[C@@H](O)CN2C(=O)[C@@H](NC(=O)N2CC3(CN(CC4CCN(c5cnc(N6CCc7[nH]c8nnc(-c9ccccc9O)cc8c7[C@H]6C)nc5)CC4)C3)C2)C(C)(C)C)cc1 [I-164]
